Results: patent publication US20200330655A1, “DELIVERY OF NITRIC OXIDE-RELEASING PHOSPHOLIPIDS, LIPOSOMES, AND HIGH DENSITY LIPOPROTEIN-LIKE NANOPARTICLES (HDL NPS) BY DRUG ELUTING STENTS AND INTRA-ARTERIAL INJECTION” (Northwestern University, priority 2016, published 2020)

Tests used:
[1] = SNO DPPTE exposure to light and/or room temperature; type: physicochemical; details: FIG. 17
[2] = test system: porcine coronary injury model; details: drug eluting stent loaded with the NO donor; cited from earlier work

For “S-nitrosylated 1,2-dipalmitoyl-sn-glycero-3-phosphothioethanol [SNO DPPTE]”, which “stability on exposure to light and/or room temperature” value [1] is on record?
Its value is “forms disulfide bonds”.

With nitroprus side as the substance, how does the “neointimal hyperplasia and restenosis” value [2] read?
Its value is “did not reduce”.
